# Assay results published in US8129356B2, “Bmx mediated signal transduction in irradiated vascular endothelium” (Vanderbilt University, priority 2007, dated 2012).
# Entries after “also recorded” stand apart in the source; their conditions may differ.
# Columns and labels:
# [1] = system: HUVEC; assay: Apoptosis assay, DAPI staining of nuclei; type: cell-based, human; conditions: 30 μM plus 3 or 6 Gy, 24 hours
# Procedure: HUVEC were also assayed for apoptosis using a 4′,6-Diamidino-2-phenylindole (DAPI) staining of the nuclei to identify cells undergoing morphological changes. […] Cells were returned to the incubator for an additional 24 hr prior to DAPI staining. Multiple high powered fields (at least 7) were examined by an observer who was blinded to the experimental conditions for each of the cultures. […] The mean and standard error were calculated for each treatment group.
# [2] = system: Lewis Lung Carcinoma (LLC) cell line; assay: Clonogenic survival assay in LLC; type: cell-based; conditions: prior to 0, 2, 4, or 6 Gy
# Procedure: (§1) Clonogenic survival. LLC's or passage 3-6 HUVECs were grown to 70-80% confluency. Cells were washed with 1×PBS, trypsin suspended, and were counted and adjusted to specific densities for each condition. The cells were plated on tissue culture plates and allowed to attach for 4 hours. LFM-A13 or DMSO was added at a 1:1000 dilution followed 60 min later by 0, 2, 4 or 6 Gy. Media was changed after irradiation. 10-14 days after irradiation, the plates were fixed with 70% ethanol and stained with 1% methylene blue. Colonies were then counted using a dissection microscopy with positive colonies containing at least 50 cells. Surviving fraction (SF) was calculated by the equation (number of colonies formed/number of cells plated)/(number of colonies for sham irradiated group/number of cells plated). Dose enhancing ratios were calculated by dividing the dose (Gy) for radiation alone by the dose for radiation plus treatment (normalized for plating efficiency of treatment) for which a SF of 0.2 is achieved.
# [3] = system: LLC hind limb tumor blood vessels; assay: Tumor immunohistochemistry (anti-CD34) in hind limb xenograft; type: in vivo, C57BL/6 mice; conditions: 50 mg/kg i.p. daily, 45 minutes before 3 Gy, five treatments
# Procedure: Tumor immunohistochemistry. LLC's were subcutaneously injected into the hind limb of C57BL/6 mice to form xenografts. When tumors grew to 200 mm^3, (approximately 7 days) the mice were treated with five consecutive daily treatments of i.p. LFM-A13 followed 45 minutes later by 3 Gy irradiation using an 80 kVp superficial x-ray generator. Twelve hours following the last radiation treatment, mice were sacrificed and tumors were harvested, fixed in paraffin, and sectioned by the Vanderbilt University Immunohistochemistry Core Facility as described previously (see Cuneo et al., 2007). Immunostaining was with goat anti-CD34 (Santa Cruz Biotechnology) and microvascular photos were analyzed using IMAGE-PRO® software with pixel number quantified.
# [4] = system: LLC tumor vasculature; assay: Tumor vascular window model; type: in vivo, C57BL/6 mice
# Procedure: Tumor vascular window model. The tumor vascular window model technique is described in Edwards et al., 2002. Briefly, three mice for each group had tumors grown within a vascular window such that tumor vasculature could be visualized within window frames containing a coordinate system for serial photography. Animals were treated with LFM-A13 by i.p. injection 60 minutes prior to 2 Gy irradiation using an 80 kVp superficial X-ray machine (Pantak X-ray Generator; East Haven, Conn., United States of America). Serial color photographs were taken to document blood vessel appearance on days 0-7. Photographs were scanned and processed using ADOBE® PHOTOSHOP® software (Adobe Systems Inc., San Jose, Calif., United States of America) to mark the center of vessels, verified by an observer blinded to treatment groups. Vascular length density (VLD) was quantified for each microscopic field using IMAGE-PRO® Plus v. 5.1 software (Media Cybernetics, Inc. Silver Spring, Md., United States of America). The mean and standard error of VLD in each treatment group were calculated and plotted. All animals used were cared for according to Vanderbilt University's Institutional Animal Care and Use Committees guidelines.
# [5] = system: HUVEC; assay: Endothelial cell tubule formation assay on MATRIGEL; type: cell-based, human; conditions: 30 μM plus 3 Gy, vs either treatment alone
# Procedure: Endothelial cell tubule formation assay. HUVEC of passage 3-6 were grown to 70-80% confluency. Cells were then washed with 1×PBS and suspended by trypsinization. Cells were counted and adjusted to 2.5-5×10^4 cells/ml in media. 75 μl MATRIGEL™ (BD Biosciences) were plated into each well of a 96 well plate and allowed to polymerize at 37° C. Cell suspensions (200 μl; […]) were added to each well. After thirty minutes, DMSO control or LFM-A13 was added. Thirty minutes later, dishes were treated with sham or 3 Gy and were then incubated until tubules had formed in control plates (4-6 hours). Digital photographs were taken of individual wells and tubules were counted by an observer blinded to the treatment conditions. The mean and standard error were calculated (n=3).
# [6] = system: HUVEC; assay: Clonogenic survival assay in HUVEC; type: cell-based, human; conditions: 30 μM
# Procedure: as §1, with “LFM-A13 or DMSO was added at a 1:1000 dilution followed 60 min later by 0, 2, 4 or 6 Gy.” left out
# [7] = system: LLC hind limb tumors; assay: Tumor growth delay; type: in vivo, C57BL/6 mice; conditions: 5 consecutive days
# Procedure: Tumor growth delay. LLC's were subcutaneously injected into the hind limb of C57/BL6 mice to form xenografts. When tumors grew to 200 mm^3, (approximately 7 days) the mice were treated with five consecutive daily treatments of i.p. LFM-A13 followed 45 minutes later by 3 Gy irradiation using an 80 kVp superficial x-ray generator. Serial measurements of tumor dimensions were taken by caliper and tumor volume was calculated using the modified ellipsoid formula (length×width×depth)/2. The mean and standard error were plotted using Microsoft Excel software.
# [8] = murine studies, previously published; cited from earlier work
# [9] = target: T1, Bmx (Homo sapiens, UniProt P51813); conditions: HUVEC, dose of 25 μM; cited from earlier work
# T1 construct: host or cells: HUVEC
# T1 sequence (P51813 1-675): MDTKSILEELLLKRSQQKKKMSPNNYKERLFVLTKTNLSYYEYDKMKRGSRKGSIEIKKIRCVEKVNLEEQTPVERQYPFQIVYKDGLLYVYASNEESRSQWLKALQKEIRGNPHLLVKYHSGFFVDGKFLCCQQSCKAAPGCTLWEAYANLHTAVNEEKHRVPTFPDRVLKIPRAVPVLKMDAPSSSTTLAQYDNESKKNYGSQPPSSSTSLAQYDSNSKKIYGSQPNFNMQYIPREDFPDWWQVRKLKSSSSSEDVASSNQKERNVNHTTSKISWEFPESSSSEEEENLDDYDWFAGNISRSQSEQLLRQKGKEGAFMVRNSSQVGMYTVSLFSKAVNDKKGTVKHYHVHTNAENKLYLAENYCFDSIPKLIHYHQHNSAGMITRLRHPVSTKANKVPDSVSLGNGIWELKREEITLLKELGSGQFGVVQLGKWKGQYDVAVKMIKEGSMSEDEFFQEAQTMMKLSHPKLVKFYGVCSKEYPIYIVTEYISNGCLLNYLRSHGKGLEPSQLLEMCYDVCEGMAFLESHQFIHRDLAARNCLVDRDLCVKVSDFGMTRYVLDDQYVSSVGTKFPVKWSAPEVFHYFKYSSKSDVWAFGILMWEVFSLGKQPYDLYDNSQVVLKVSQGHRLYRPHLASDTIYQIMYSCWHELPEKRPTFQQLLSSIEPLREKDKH
# [10] = target: T1, Bmx; type: cell-based; conditions: 30 μM pre-incubation, 3 Gy
# Procedure: Immunoprecipitation and in vitro kinase assay. HUVECs of passage 3-6 were grown to 70-80% confluency and then serum starved for 5 hours. The cells were then treated with sham or 3 Gy irradiation. After treatment, the cells were incubated at 37° C. with 5% CO2 for the indicated times. For inhibition studies, inhibitor was added at a 1:1000 dilution 60 minutes prior to irradiation. Following incubation, the tissue culture dishes were placed on ice and washed twice with ice cold 1× Phosphate-buffered Saline (PBS) followed by lysis using 400 μM-PER containing protease and phosphatase inhibitors (Sigma-Aldrich Co.) for 5 minutes. The cells were scraped and transferred to Eppendorf tubes, vortexed for 20 seconds, and incubated on ice for 30 minutes. After clearing the lysate by centrifugation at 15,000 g for 15 minutes at 4° C., the supernatant was quantified for protein concentration using the bicinchoninic acid (BCA) method prior to immunoprecipitation. Immunoprecipitation was performed using the CATCH AND RELEASE® v 2.0 system (Upstate Group, LLC, Charlottesville, Va., United States of America) according to manufacturer's protocol with some modification.
# Briefly, spin columns containing binding resin were prepared by washing twice with 1× wash buffer (2000 g/30 seconds). […] This was added to the capped spin column which was rotated end-over-end overnight at 4° C. […]
# [11] = system: HUVEC; assay: Endothelial closure assay (migration across a gap); type: cell-based, human
# Procedure: Endothelial closure assay. HUVEC of passage 3-6 were grown on glass slides and were subjected to gap formation as described previously (Cuneo et al., 2007). Cells were treated with LFM-A13 or DMSO control prior to 0 or 3 Gy and incubated for the indicated times. Photographs of cell defect and surrounding cells were taken and relative cell density within the defect was calculated as follows: (number of cells/original cell defect area)/(number of cells/surrounding area).
# [12] = system: HUVEC; assay: Apoptosis assay, Annexin V/propidium iodide flow cytometry; type: cell-based, human; conditions: 24 hours
# Procedure: Apoptosis assays. HUVEC were grown to 70-80% confluency prior to treatment with LFM-A13 or DMSO control. Cells were then irradiated with 0 or 3 Gy and harvested 24 hours after irradiation. Annexin V-FITC Apoptosis Detection kit (BD PharMingen, San Diego, Calif., United States of America) was used to stain cells (propidium iodide (50 ng) and annexin V-FITC (5 ng) were added to 10^5 cells) for flow cytometry according to manufacturer's protocol. For each treatment, the percent of cells undergoing apoptosis (±SE) was calculated. Camptothecin (5 μmol/L) treatment for 6 hours served as positive control
# [13] = system: HUVEC; assay: In vitro studies disclosed herein, comparison of Tec family inhibitors; type: cell-based, human
smiles,measurement,setting,value
"C/C(O)=C(\C#N)C(=O)Nc1cc(Br)ccc1Br [LFM-A13, (2Z)-2-cyano-N-(2,5-dibromophenyl)-3-hydroxy-2-butenamide]","percent of apoptotic cells, combination with irradiation",[1],enhancement of apoptosis
same,clonogenic survival compared to DMSO control,[2],no difference in clonogenic survival
same,"blood vessel formation (CD34 staining), combination with 3 Gy",[3],most effective at attenuating blood vessel formation
same,"tumor vascular window blood vessels, drug alone",[4]; 50 mg/kg i.p. alone,minimally inhibited
same,"tumor blood vessels (mean vascular length density), combination with 2 Gy",[4]; single 50 mg/kg i.p. prior to 2 Gy,dramatic reduction in tumor blood vessels
same,"number of tubules formed, combination with 3 Gy",[5],significant reduction (p<0.005) in tubules formed
same,"radiosensitization (surviving fraction, survival curve shift)","[6]; 45 minutes prior to 0, 2, 4, or 6 Gy, colonies over 10 days",radiosensitized HUVEC
same,dose enhancing ratio (DER),[6]; dose ratio at SF of 0.2,1.47
same,"tumor growth delay, combination with 3 Gy",[7]; 50 mg/kg i.p. 45 minutes prior to 3 Gy,statistically significant enhancement of growth delay; also recorded: more than additive
same,"tumor growth delay, drug alone","[7]; 50 mg/kg i.p., sham irradiation",small growth delay
same,tolerability,[8],well-tolerated
same,VEGF induced signaling through Bmx inhibition,[9],block VEGF induced signaling
same,radiation-induced Bmx activation (autophosphorylation),[10],attenuated the activation of Bmx
same,"endothelial cell closure (relative cell density in gap), drug alone","[11]; 30 μM alone, 12 hours and 24 hours, vs vehicle control",minimal effect on attenuating endothelial cell closure
same,"endothelial cell closure, combination with 3 Gy","[11]; 30 μM for 45 minutes prior to 3 Gy, 12 and 24 hours",greater than additive effect
same,"apoptosis, combination with 3 Gy",[12]; 30 μM plus 3 Gy,statistically significant (p<0.001 vs. LFM-A13 or 3 Gy alone) increase in apoptosis
same,"early and late apoptosis, drug alone","[12]; 30 μM, sham irradiation",not capable of shifting cells into either early (Q4-1) or late (Q2-1) apoptosis
CC1=C(O)C(=O)[C@@H]2O[C@@H]2C1=O [terreic acid],effectiveness relative to LFM-A13,[13],at least as effective as LFM-A13
